Measured values published in article PMC6273963, “Design, Synthesis, and Biological Evaluation of Some Novel Pyrrolizine Derivatives as COX Inhibitors with Anti-Inflammatory/Analgesic Activities and Low Ulcerogenic Liability” (Molecules, 2016).
“Also recorded” adds a separate entry of the source.

Tests used:
[1] = tested on: thermal pain (hot plate); test: Hot-plate test (analgesic activity); assay type: in vivo, rat; details: IP; for analgesic activity (in words): 0.24 and 0.48 mmol/kg, 2 h after injection, compared with ibuprofen
Protocol: A hot-plate was used to induce thermal pain and the cutoff time was fixed to 15 s [30]. […] The analgesic activity of the novel pyrrolizines were carried out using the thermal model (hot-plate test) according to a previous report [30]. An electronically controlled hot-plate (Harvard Apparatus Ltd., Kent, UK) was used and the cut-off time was 15 s and the temperature was adjusted to 52 ± 0.1 °C. Animals were then divided into groups of six animal each. Rats were assigned numbers of 1–6 in each group. The reference drug was given intraperitoneally at a dose of 50 mg/kg (0.24 mmol/kg) and 100 mg/kg (0.48 mmol/kg). […] The response latencies (time elapsed until licking paw or jumping) were measured and expressed as mean ± SEM. The percent changes (analgesic effects) of the tested compounds were calculated as percent change in latencies divided by baseline time (100 × (T1 − T0)/T0) and results were expressed as % change ± SEM, Figure 6.

[2] = tested on: carrageenan-induced rat paw edema; test: Carrageenan-induced rat paw edema model (anti-inflammatory activity); assay type: in vivo; set-up: key to Potency (anti-inflammatory activity of tested compound/ibuprofen): ratio of % inhibition of edema (compound / ibuprofen); ibuprofen = 1.00; details: for % Inhibition in Edema Thickness 1 h: 1 h after induction of inflammation; for % Inhibition in Edema Thickness 1 h / % Inhibition in Edema Thickness 2 h / % Inhibition in Edema Thickness 3 h: IP, dose molecularly equivalent to ibuprofen, n = 6; for % Inhibition in Edema Thickness 2 h: 2 h after induction of inflammation; for % Inhibition in Edema Thickness 3 h: 3 h after induction of inflammation; for Potency (anti-inflammatory activity of tested compound/ibuprofen): after 3 h of induction of inflammation, relative to ibuprofen; for anti-inflammatory activity (in words): compared with ibuprofen and parent compound 12
Description: The carrageenan-induced rat paw edema model was utilized to investigate the anti-inflammatory activity of compounds 12–19 relative to ibuprofen as a reference drug.
(§1) Adult albino rats of both sex weighing 100–140 g were used in evaluation of the anti-inflammatory, analgesic, ulcerogenic activity in addition to the histopathological study of the new pyrrolizines 12–19. Animal ethical use clearance was obtained from the Ethical Committee at the College of Pharmacy, Umm Al-Qura University. Normalization of the animals with laboratory conditions were achieved by keeping them in laboratory one week before starting the experiments. Standard rat pellet diet was used for feeding animals and water ad libitum.
The anti-inflammatory activity of the novel compounds 12–19 was evaluated in comparison with ibuprofen as a standard, using a rat paw edema model as described by Winter et al.. Adult albino rats of both sexes (100–140 gm) were used. Rats were uniformly hydrated by giving 3 mL water for each rat through gastric inoculation to reduce variability to edema response. Animals were then divided into groups of six animal each. The control group was given saline solution containing few drops of sodium carboxymethyl cellulose (CMC) 1% and DMSO. Ibuprofen (50 and 100 mg/kg) was given as standard drug. The new compounds 12–19 in a dose molecularly equivalent to ibuprofen were dissolved in 0.5 mL DMSO and CMC 1% was added dropwise with continuous triturating to complete the specified volume. The tested compounds were administered intraperitoneally (IP). The induction of inflammation was achieved by subcutaneous (SC) injection of carrageenan-sodium gel, into the sub-plantar region of the right hind paw. The dorsoventral diameter (thickness) of the right and left hind paw of each rat was measured using digital calipers with accuracy of 0.01 mm (Cole-Parmer, Vernon Hills, IL, USA). The thickness of edema was measured 1, 2 and 3 h after induction of inflammation. The left hind paw diameter served as a control for the degree of inflammation in the right hind paw. The changes in the edema thickness were expressed as mean ± SEM, Figure 4. The anti-inflammatory activity was calculated as % inhibition of inflammation = (1 − Lt/Lc) × 100. Where Lt is the mean increase in paw thickness in rats treated with the tested compounds and Lc is the mean increase in paw thickness in control group. Data were collected, and statistically analyzed by One way ANOVA followed by student-Newman-Keuls multiple comparison test, Table 2.

[3] = tested on: stomach mucosa, submucosa and mucosal glands; test: Histopathological study of rat stomach; assay type: in vivo; details: rats of the ulcerogenicity test, haematoxylin and eosin stain
Description: The stomachs of the rats used in ulcerogenicity test were subjected to a histopathological study to visualize the deep effects of ibuprofen and tested compounds on the stomach mucosa, submucosa and mucosal glands. The specimens were stained with haematoxylin and eosin stain [33].
The study investigated the deep effect of the tested compounds on the mucosa, submucosa and mucosal gland. The stomachs which were opened longitudinally along the greater curvature were used and the specimens were taken from the stomachs of all cases. These specimens were fixed in 10% formalin solution for 72 h. The samples were processed and embedded in paraffin wax. Microtomy was done and 5 microns tissue sections were obtained and mounted on clean glass slides.

[4] = tested on: rat stomach mucosa; test: Acute ulcerogenicity study; assay type: in vivo; details: oral, 0.48 mmol/kg; for Ulcerogenicity UI (ulcer index): three days, n = 6
Protocol: GIT toxicity is the main serious side effect of the NSAIDs. In this work, the ulcerogenicity of the novel compounds 12–19 was evaluated according to the previous reported methodology. The tested compounds 12–19 and ibuprofen were given orally in a dose of 0.48 mmol/kg.
as §1
GIT toxicity was evaluated according to the previous report. Adult albino rats of both sexes were divided into groups of six animals each. The test compounds were dissolved first in 0.5 mL DMSO, then CMC (1%) was added dropwise with trituration. Rats were fasted 20 h before drug administration. The eight tested compounds and ibuprofen were given orally in a dose of 0.24 and 0.48 mmol/kg/day suspended in 1% CMC, while the control group received vehicle (1% CMC containing few drops of DMSO). Rats were then fasted for 2 h, allowed to feed for 2 h then fasted again for another 20 h. Other doses were given in the second and third days. In the fourth day, Pentobarbital (60 mg/kg IP) was used to induce deep anesthesia then rats were sacrificed. The stomachs were removed, opened along with the greater curvature and rinsed with 0.9% saline. The number of mucosal damages (red spots) were counted using magnifying lens and their severity (ulcerogenic severity) was graded in a scale from 0 to 3 as follows: (0) normal (no injury), (0.5) red coloration, (1) spot ulcer, (1.5) hemorrhagic streaks, (2) ulcer > 3 mm, (3) ulcer > 5 mm. The ulcer index was calculated using the following equation ulcer index (UI) = UN + US + UP/10, where UN is the average number pf ulcers per animal, US is the average of severity score, UP is the percent of animal with ulcer.

[5] = tested on: COX-1; details: cited from earlier work; for IC50: literature values, Figures 1 and 2
[6] = tested on: 5-LOX; set-up: method as in PMID 8021931, PMID 9396390, PMID 12660020, PMID 19719242; details: literature values, Figures 1 and 2; cited from earlier work
[7] = tested on: COX-2; set-up: method as in PMID 10027870, PMID 8021931, PMID 12660020; details: literature values, Figures 1 and 2; cited from earlier work
[8] = tested on: mPGES-1; set-up: method as in PMID 19719242; details: cell free; cited from earlier work
[9] = tested on: rat paw edema; set-up: method as in PMID 19913956; details: in comparison with ketorolac; cited from earlier work
[10] = target: T1, COX-1 (ovine) (Ovis aries, UniProt P05979); test: COX colorimetric inhibitor screening assay, COX-1
T1 sequence (P05979 25-600): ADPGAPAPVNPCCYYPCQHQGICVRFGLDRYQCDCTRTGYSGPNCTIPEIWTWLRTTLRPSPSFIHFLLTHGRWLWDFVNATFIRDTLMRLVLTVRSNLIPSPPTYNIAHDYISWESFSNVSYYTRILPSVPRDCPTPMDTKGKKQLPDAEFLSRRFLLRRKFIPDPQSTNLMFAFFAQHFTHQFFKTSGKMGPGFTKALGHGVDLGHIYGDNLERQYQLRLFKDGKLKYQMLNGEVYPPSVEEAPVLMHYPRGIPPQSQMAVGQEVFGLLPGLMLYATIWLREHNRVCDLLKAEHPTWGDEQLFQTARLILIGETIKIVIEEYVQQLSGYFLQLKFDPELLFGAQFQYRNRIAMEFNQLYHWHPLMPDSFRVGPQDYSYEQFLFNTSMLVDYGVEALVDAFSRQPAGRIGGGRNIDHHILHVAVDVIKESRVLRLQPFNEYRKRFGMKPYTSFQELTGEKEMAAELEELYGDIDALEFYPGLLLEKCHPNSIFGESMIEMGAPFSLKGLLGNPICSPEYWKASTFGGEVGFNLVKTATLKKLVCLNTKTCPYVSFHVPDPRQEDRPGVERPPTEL

[11] = target: T2, COX-2 (human recombinant) (Homo sapiens, UniProt P35354); test: COX colorimetric inhibitor screening assay, COX-2; details: for SI (COX-2 selectivity index = IC50 of COX-1/IC50 of COX-2): in vitro
T2 sequence (P35354 18-604): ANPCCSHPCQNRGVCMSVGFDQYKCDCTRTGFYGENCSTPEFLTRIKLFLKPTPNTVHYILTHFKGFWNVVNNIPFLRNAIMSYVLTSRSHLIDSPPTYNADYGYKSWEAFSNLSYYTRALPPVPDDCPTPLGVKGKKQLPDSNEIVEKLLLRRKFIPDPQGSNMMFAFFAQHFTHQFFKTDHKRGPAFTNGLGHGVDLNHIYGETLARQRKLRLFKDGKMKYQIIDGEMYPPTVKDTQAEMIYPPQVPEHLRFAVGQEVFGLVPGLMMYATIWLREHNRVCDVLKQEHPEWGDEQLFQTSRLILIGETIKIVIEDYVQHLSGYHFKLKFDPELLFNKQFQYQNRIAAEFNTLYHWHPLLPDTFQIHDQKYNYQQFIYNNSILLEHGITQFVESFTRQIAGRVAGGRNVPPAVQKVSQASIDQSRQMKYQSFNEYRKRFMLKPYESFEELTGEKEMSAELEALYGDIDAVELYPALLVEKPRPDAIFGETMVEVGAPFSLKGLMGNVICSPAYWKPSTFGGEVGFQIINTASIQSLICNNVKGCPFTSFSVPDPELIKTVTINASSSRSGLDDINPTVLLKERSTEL

CC(C)Cc1ccc(C(C)C(=O)Nc2c(C#N)c3n(c2C(=O)Nc2ccc(Br)cc2)CCC3)cc1 (racemic) [Compound 19, (R,S)-N-(4-Bromophenyl)-7-cycno-6-(2-(4-isobutylphenyl)propanamido)-2,3-dihydro-1H-pyrrolizine-5-carboxamide]
analgesic activity (in words) [1]: lower than that of ibuprofen
melting point: 217 to 219 °C
% Inhibition in Edema Thickness 1 h [2]: 13.82%
% Inhibition in Edema Thickness 2 h [2]: 22.44%
% Inhibition in Edema Thickness 3 h [2]: 38.79%
Potency (anti-inflammatory activity of tested compound/ibuprofen) [2]: 0.95
anti-inflammatory activity (in words) [2]: weak activity after the first hour
histopathological findings in stomach transverse sections [3]: normal mucosal glands with no histopathological effects
Ulcerogenicity % Protection (% inhibition of ulcer relative to ibuprofen) [4]: 100%

CC1(C)Cc2c(-c3ccccc3)c(-c3ccc(Cl)s3)c(CC(=O)O)n2C1 [Compound 3]
IC50 [5]: 210 nM
IC50 [6]: 250 nM

Cc1ccc(-c2c(-c3ccc(S(C)(=O)=O)cc3)cn3c2CCC3)cc1 [Compound 4]
IC50 [5]: 700 nM
IC50 [6]: 10000 nM
IC50 [7]: 5 nM

COC1c2c(-c3ccccc3)c(-c3ccc(Cl)cc3)c(C)n2CC1(C)C (stereo not drawn) [Compound 5]
IC50 [5]: 500 nM
IC50 [6]: 60 nM
IC50 [7]: 7500 nM

Cc1ccc(S(=O)(=O)NC(=O)Cc2c(-c3ccc(Cl)cc3)c(-c3ccccc3)c3n2CC(C)(C)C3)cc1 [Compound 6]
IC50 [6]: 260 nM
IC50 [8]: 4800 nM

N#Cc1c(N)c(C(=O)Nc2ccc(C(=O)O)cc2)n2c1CCC2 [Compound 7]
reduction in rat paw edema [9]: approximately 50%

Cc1ccc(S(=O)(=O)Nc2c(C#N)c3n(c2C(=O)Nc2ccc(Br)cc2)CCC3)cc1 [Compound 17, N-(4-Bromophenyl)-7-cyano-6-(4-methylphenylsulfonamido)-2,3-dihydro-1H-pyrrolizine-5-carboxamide]
analgesic potency relative to ibuprofen ([1]; 0.48 mmol/kg): 1.03 to 1.27 times
analgesic activity (in words) [1]: higher analgesic activity than ibuprofen; also recorded: the most active
IC50 [10]: 5010 nM
% Inhibition in Edema Thickness 1 h [2]: 27.19%
% Inhibition in Edema Thickness 2 h [2]: 40.55%
% Inhibition in Edema Thickness 3 h [2]: 49.47%
Potency (anti-inflammatory activity of tested compound/ibuprofen) [2]: 1.21
IC50 [11]: 1720 nM
SI (COX-2 selectivity index = IC50 of COX-1/IC50 of COX-2) [11]: 2.91
histopathological findings in stomach transverse sections [3]: little histopathological effects such as congested blood vessels and variable degrees of leukocytes infiltration
Ulcerogenicity UI (ulcer index) [4]: 2.26
Ulcerogenicity % Protection (% inhibition of ulcer relative to ibuprofen) [4]: 83.69%

N#Cc1c(NC(=O)C(=O)Nc2c(C#N)c3n(c2C(=O)Nc2ccc(Br)cc2)CCC3)c(C(=O)Nc2ccc(Br)cc2)n2c1CCC2 [Compound 18, N^1,N^2-Bis(5-((4-Bromophenyl)carbamoyl)-7-cycno-2,3-dihydro-1H-pyrrolizin-6-yl)oxalamide]
analgesic activity (in words) [1]: lower than that of ibuprofen
IC50 [10]: 5100 nM
melting point: 318 to 321 °C
% Inhibition in Edema Thickness 1 h [2]: 6.91%
% Inhibition in Edema Thickness 2 h [2]: 17.72%
% Inhibition in Edema Thickness 3 h [2]: 22.42%
Potency (anti-inflammatory activity of tested compound/ibuprofen) [2]: 0.55
anti-inflammatory activity (in words) [2]: lower activity than both ibuprofen and the parent compound 12
IC50 [11]: 850 nM
SI (COX-2 selectivity index = IC50 of COX-1/IC50 of COX-2) [11]: 6.03
histopathological findings in stomach transverse sections [3]: little histopathological effects such as congested blood vessels and variable degrees of leukocytes infiltration
Ulcerogenicity UI (ulcer index) [4]: 4.41
Ulcerogenicity % Protection (% inhibition of ulcer relative to ibuprofen) [4]: 68.18%

O=C(c1ccccc1)c1ccc2n1CCC2C(=O)O (stereo not drawn) [Ketorolac, ketorolac]
selectivity ratio for COX-1 ([5]; COX-1 over COX-2): 2.9
IC50 [5]: 1230 nM
IC50 [7]: 3600 nM

CC1(C)Cc2c(-c3ccccc3)c(-c3ccc(Cl)cc3)c(CC(=O)O)n2C1 [Licofelone, licofelone]
IC50 [5]: 210 nM
IC50 [6]: 180 nM
IC50 [7]: > 30000 nM
